Blank lines part the entries; values can stand above or below the compound they belong to.
Target: thrombin (Homo sapiens, UniProt P00734)
Assay: Effect of test compounds on thrombin activity: hydrolysis rate of chromogenic (Chromozim TH) or fluorogenic (BOC-Ala-Pro-Arg-AMC) substrate
Assay type: biochemical
Conditions: for inhibition at 0.005 µM: concentration of compound 5 nM; for inhibition at 0.025 µM: concentration of compound 25 nM; for inhibition at 0.05 µM: concentration of compound 50 nM; for inhibition at 0.1 µM: concentration of compound 100 nM; for inhibition at 0.0025 µM: concentration of compound 2.5 nM; for inhibition at 0.02 µM: concentration of compound 20 nM; for inhibition at 0.04 µM: concentration of compound 40 nM; for inhibition at 0.2 µM: concentration of compound 200 nM; for inhibition at 0.00125 µM: concentration of compound 1.25 nM; for inhibition at 0.0125 µM: concentration of compound 12.5 nM; for inhibition at 0.125 µM: concentration of compound 125 nM; for inhibition at 0.01 µM: concentration of compound 10 nM
Text: The effect of the synthesized substances on thrombin activity was studied by measuring the hydrolysis rate of specific low molecular weight substrates with thrombin in an aqueous buffering solution in the absence and presence of these compounds. One of these substrates was chromogenic substrate Chromozim TH (CTH): N-(p-Tosyl)-Gly-Pro-Arg-pNA [Sonder S A, Fenton J W 2nd. Thrombin Specificity with Tripeptide Chromogenic Substrates: Comparison of Human and Bovine Thrombins with and without Fibrinogen Clotting Activities. Clin. Chem., 1986, 32(6):934-937]. Another substrate that was used in a number of experiments was fluorogenic substrate BOC-Ala-Pro-Arg-AMC (S), wherein BOC is butoxycarbonyl residue, and AMC is 7-amino-4-methylcoumaryl [Kawabata S, Miura T, Morita T, Kato H, Fujikawa K, Ivanaga S, Takada K, Kimura T, Sakakibara S. Highly Sensitive peptide-4-methylcoumaryl-7-amide Substrates for Blood-Clotting Proteases and Trypsin. Eur. J. Biochem., 1988, 172(1):17-25].
The holes of a common 96-hole board were filled with a buffer containing 140 mM of NaCl, 20 mM of HEPES, and 0.1% polyethylene glycol (Mw=6,000), at pH=8.0. […] When a chromogenic substrate was used, accumulation of the colored reaction product—para-nitroaniline—was followed on a spectrophotometric Molecular Devices board reader (Thermomax, U.S.), measuring the increase in optical density on the 405 nm wavelength. […] The reaction kinetics was registered on a fluorometric Titertek Fluoroskan board reader (LabSystem, Finland).
The initial reaction rate was measured as the tangent of the kinetic curve inclination angle on a straight section (first 10 to 15 minutes of registration). Reaction rate without an inhibitor was a ssumed to be 100%. The mean arithmetic value of two independent measurements was used as the end result.

[1] = concentration of compound 2.5 mcM
[2] = concentration of compound 5 mcM
[3] = concentration of compound 10 mcM
[4] = concentration of compound 0.5 mcM
[5] = concentration of compound 2 mcM
[6] = concentration of compound 20 mcM
[7] = concentration of compound 50 mcM
[8] = concentration of compound 100 mcM
[9] = concentration of compound 25 mcM
[10] = concentration of compound 250 mcM
[11] = concentration of compound 500 mcM
[12] = concentration of compound 0.25 mcM
[13] = concentration of compound 1.25 mcM

inhibition at 0.005 µM: 47%
inhibition at 0.025 µM: 56%
inhibition at 0.05 µM: 85%
Hydrolysis rate inhibition, % [1]: 96%
Structure (SMILES): Cc1ccc(S(=O)(=O)Oc2cc(C)cc(OCC[n+]3ccc(N)cc3)c2)cc1 [HC_038s_IOC]

Structure (SMILES): C/N=C(/N)SCCCOc1cc(C)cc(OS(=O)(=O)c2ccccc2Cl)c1.I [HC_032s_IOC]
inhibition at 0.05 µM: 10%
inhibition at 0.1 µM: 17%
Hydrolysis rate inhibition, % [2]: 48%
Hydrolysis rate inhibition, % [3]: 71%

inhibition at 0.0025 µM: 4%
inhibition at 0.005 µM: 19%
inhibition at 0.025 µM: 66%
inhibition at 0.05 µM: 75%
Hydrolysis rate inhibition, % [1]: 100%
Structure (SMILES): Cc1cc(OCCSC(=N)N)cc(OS(=O)(=O)c2ccccc2S(C)(=O)=O)c1 [HC_040s_IOC]

Structure (SMILES): Cc1cc(OCCCSC(=N)N)cc(OS(=O)(=O)c2ccccc2)c1.I [HC-018s-IOC, 3-(3-methyl-5-(benzenesulfonyloxy)phenoxy)propyl-isothiouronium iodide]
inhibition at 0.02 µM: 16%
inhibition at 0.04 µM: 33%
inhibition at 0.1 µM: 49%
inhibition at 0.2 µM: 64%
Hydrolysis rate inhibition, % [4]: 93%
Hydrolysis rate inhibition, % (concentration of compound 1 mcM): 98%
Hydrolysis rate inhibition, % [5]: 100%
Hydrolysis rate inhibition, % [2]: 100%
Hydrolysis rate inhibition, % [3]: 100%
Hydrolysis rate inhibition, % [6]: 100%
Hydrolysis rate inhibition, % [7]: 100%
Hydrolysis rate inhibition, % [8]: 100%

Structure (SMILES): Cc1cc(OCC[n+]2ccc(N)cc2)cc(OS(=O)(=O)c2ccccc2Cl)c1 [HC-025s-IOC, 4-amino-1-(2-(3-methyl-5-(2-chlorobenzenesulfonyloxy)phenoxy)ethyl)-pyridinium iodide]
inhibition at 0.00125 µM: 69%
inhibition at 0.0025 µM: 52%
inhibition at 0.0063 µM (concentration of compound 6.3 nM): 70%
inhibition at 0.0125 µM: 81%
inhibition at 0.05 µM: 96%
inhibition at 0.125 µM: 98%

Hydrolysis rate inhibition, % [9]: 5%
Hydrolysis rate inhibition, % [8]: 8%
Hydrolysis rate inhibition, % [10]: 4%
Hydrolysis rate inhibition, % [11]: 4%
Structure (SMILES): CN(C)c1cc[n+](CCc2nc3cc(S(=O)(=O)N(C)c4ccccc4)ccc3n2C)cc1.[Cl-] [HC-021s-IOC]

Structure (SMILES): Cc1cc(OCCCn2ccsc2=N)cc(OS(=O)(=O)c2ccccc2)c1
inhibition at 0.1 µM: 5%
inhibition at 0.2 µM: 10%
Hydrolysis rate inhibition, % [4]: 23%
Hydrolysis rate inhibition, % [5]: 57%
Hydrolysis rate inhibition, % [2]: 73%
Hydrolysis rate inhibition, % [6]: 95%
Hydrolysis rate inhibition, % [7]: 95%
Hydrolysis rate inhibition, % [8]: 96%
Hydrolysis rate inhibition, % (concentration of compound 200 mcM): 97%

Hydrolysis rate inhibition, % [12]: 21%
Hydrolysis rate inhibition, % [4]: 18%
Hydrolysis rate inhibition, % [2]: 27%
Hydrolysis rate inhibition, % [9]: 34%
Hydrolysis rate inhibition, % [7]: 40%
Hydrolysis rate inhibition, % (concentration of compound 130 mcM): 36%
Hydrolysis rate inhibition, % [10]: 51%
Structure (SMILES): CNc1ccc(S(=O)(=O)N(C)c2ccccc2)cc1NC(=O)CC[n+]1ccc(N(C)C)cc1.[Cl-] [HC-022s-IOC]

Structure (SMILES): Cc1cc(OCC[n+]2ccc(N)cc2)cc(OS(=O)(=O)c2ccccc2)c1 [HC-019s-IOC, 4-amino-1-(2-(3-methyl-5-(benzene Sulfonyloxy)phenoxy)ethyl)-pyridinium iodide]
inhibition at 0.0025 µM: 55%
inhibition at 0.005 µM: 88%
inhibition at 0.0125 µM: 90%
inhibition at 0.025 µM: 88%
inhibition at 0.05 µM: 95%
inhibition at 0.125 µM: 94%

Structure (SMILES): C/N=C(/N)SCCOc1cc(C)cc(OS(=O)(=O)c2ccccc2Cl)c1.I [HC_033s_IOC]
inhibition at 0.004 µM (concentration of compound 4 nM): 18%
inhibition at 0.01 µM: 23%
inhibition at 0.02 µM: 24%
inhibition at 0.04 µM: 62%
inhibition at 0.1 µM: 59%
inhibition at 0.2 µM: 74%
Hydrolysis rate inhibition, % (concentration of compound 4 mcM): 100%

Structure (SMILES): Cc1cc(OCCC[n+]2ccsc2N)cc(OS(=O)(=O)c2ccccc2F)c1.[I-] [HC_030s_IOC]
inhibition at 0.02 µM: 5%
inhibition at 0.05 µM: 18%
Hydrolysis rate inhibition, % [5]: 72%
Hydrolysis rate inhibition, % [2]: 88%
Hydrolysis rate inhibition, % [3]: 93%

Structure (SMILES): Cc1cc(OCCC[n+]2ccc(N)cc2)cc(OS(=O)(=O)c2ccccc2)c1 [HC-016s-IOC, 4-amino-1-(3-(3-methyl-5-(benzenesulfonyloxy)phenoxy)propyl)-pyridinium iodide]
inhibition at 250 µM (concentration of compound 0.25 mM): 84%
inhibition at 500 µM (concentration of compound 0.5 mM): 100%

Hydrolysis rate inhibition, % [12]: 11%
Hydrolysis rate inhibition, % [4]: 6%
Hydrolysis rate inhibition, % [1]: 24%
Hydrolysis rate inhibition, % [2]: 24%
Hydrolysis rate inhibition, % [3]: 59%
Hydrolysis rate inhibition, % [9]: 72%
Hydrolysis rate inhibition, % [7]: 88%
Hydrolysis rate inhibition, % [8]: 100%
Hydrolysis rate inhibition, % [10]: 100%
Hydrolysis rate inhibition, % [11]: 100%
Structure (SMILES): CN(c1ccccc1)S(=O)(=O)c1ccc2c(c1)nc(CC[n+]1ccc(N)cc1)n2C.[Cl-] [HC_027s_IOC]

inhibition at 0.0025 µM: 43%
inhibition at 0.005 µM: 59%
inhibition at 0.025 µM: 82%
inhibition at 0.05 µM: 86%
Hydrolysis rate inhibition, % [1]: 89%
Structure (SMILES): Cc1cc(OCC[n+]2ccc(N)cc2)cc(OS(=O)(=O)c2ccccc2F)c1 [HC_037s_IOC]

inhibition at 0.0025 µM: 29%
inhibition at 0.005 µM: 28%
inhibition at 0.025 µM: 79%
inhibition at 0.05 µM: 88%
Hydrolysis rate inhibition, % [1]: 96%
Structure (SMILES): Cc1cc(OCC[n+]2ccc(N)cc2)cc(OS(=O)(=O)c2ccccc2S(C)(=O)=O)c1 [HC_036s_IOC]

Structure (SMILES): Cc1cc(OCCC[n+]2ccc(N)cc2)cc(OS(=O)(=O)c2ccccc2Cl)c1 [HC-023s-IOC, 4-AMINO-1-(3-(3-METHYL-5-(2-CHLOROBENZENE SULFONYLOXY)PHENOXY)PROPYL)-PYRIDINIUM IODIDE]
Hydrolysis rate inhibition, % (concentration of compound 0.7 mcM): 13%
Hydrolysis rate inhibition, % (concentration of compound 1.4 mcM): 34%
Hydrolysis rate inhibition, % (concentration of compound 3.4 mcM): 50%
Hydrolysis rate inhibition, % (concentration of compound 34 mcM): 86%
Hydrolysis rate inhibition, % (concentration of compound 68 mcM): 99%
Hydrolysis rate inhibition, % [10]: 100%

Structure (SMILES): Cc1cc(OCC[n+]2ccsc2N)cc(OS(=O)(=O)c2ccccc2Cl)c1.[I-] [HC_045s_IOC]
Hydrolysis rate inhibition, % (concentration of compound 0.125 mcM): 10%
Hydrolysis rate inhibition, % [12]: 18%
Hydrolysis rate inhibition, % [4]: 42%
Hydrolysis rate inhibition, % [13]: 66%
Hydrolysis rate inhibition, % [1]: 87%

Structure (SMILES): Cc1cc(OCCSC(=N)N)cc(OS(=O)(=O)c2ccccc2Cl)c1 [HC_046s_IOC]
inhibition at 0.00125 µM: 18%
inhibition at 0.0025 µM: 39%
inhibition at 0.005 µM: 59%
inhibition at 0.0125 µM: 77%
inhibition at 0.025 µM: 92%

Structure (SMILES): Cc1cc(OCCCSC(=N)N)cc(OS(=O)(=O)c2ccccc2F)c1.I [HC_031s_IOC]
inhibition at 0.005 µM: 35%
inhibition at 0.01 µM: 43%
inhibition at 0.02 µM: 49%
inhibition at 0.05 µM: 59%
inhibition at 0.1 µM: 73%
Hydrolysis rate inhibition, % [5]: 99%
Hydrolysis rate inhibition, % [2]: 100%

inhibition at 0.0025 µM: 24%
inhibition at 0.005 µM: 44%
inhibition at 0.025 µM: 73%
inhibition at 0.05 µM: 88%
Hydrolysis rate inhibition, % [1]: 98%
Structure (SMILES): Cc1cc(OCC[n+]2ccc(N)cc2)cc(OS(=O)(=O)c2ccc(Cl)cc2)c1 [HC_039s_IOC]

Hydrolysis rate inhibition, % (concentration of compound 0.1 mcM): 56%
Hydrolysis rate inhibition, % [12]: 62%
Hydrolysis rate inhibition, % [4]: 75%
Hydrolysis rate inhibition, % (concentration of compound 1.75 mcM): 88%
Hydrolysis rate inhibition, % (concentration of compound 3.75 mcM): 90%
Hydrolysis rate inhibition, % [9]: 95%
Hydrolysis rate inhibition, % [10]: 99%
Structure (SMILES): Nc1cc[n+](CCOc2cccc(NS(=O)(=O)c3ccccc3)c2)cc1 [HC_041s_IOC]

Structure (SMILES): Cc1cc(OCC[n+]2ccc(N)nc2)cc(OS(=O)(=O)c2ccccc2)c1.[I-] [HC_047s_IOC]
inhibition at 0.01 µM: 8%
inhibition at 0.025 µM: 10%
inhibition at 0.05 µM: 14%
Hydrolysis rate inhibition, % [12]: 36%
Hydrolysis rate inhibition, % [4]: 49%
Hydrolysis rate inhibition, % (concentration of compound 1.85 mcM): 84%
Hydrolysis rate inhibition, % [1]: 90%

Structure (SMILES): Cc1cc(OCCSC(=N)N)cc(OS(=O)(=O)c2ccccc2)c1.I [HC-020s-IOC, 2-(3-methyl-5-(benzenesulfonyloxy)phenoxy)ethyl-isothioronium iodide]
inhibition at 0.005 µM: 54%
inhibition at 0.0125 µM: 46%
inhibition at 0.025 µM: 59%
inhibition at 0.05 µM: 68%
inhibition at 0.125 µM: 81%
inhibition at 0.25 µM (concentration of compound 250 nM): 94%
inhibition at 0.5 µM (concentration of compound 500 nM): 96%
Hydrolysis rate inhibition, % [13]: 98%
Hydrolysis rate inhibition, % [1]: 99%
Hydrolysis rate inhibition, % [2]: 99%

Source: patent US20100324058A1 (Obschestvo S Organichennoi Otvetsttvennoctiyou "Bionika", priority 2007, published 2010)
